pIC50: −log10 of the molar value. Counter-ions that a name gives are not always drawn.
How the values were obtained:
hSTING = target: T1, hSTING (Homo sapiens, UniProt Q86WV6); assay: Inhibition test of intracellular human STING (hSTING) pathways using reporter cells (HEK-Blue ISG, SEAP reporter); format: cell-based; settings: stimulation with Compound 3 (10 nM), 21 hours; for pIC50: read-out: Inhibitory Activity on hSTING
T1 construct: host or cells: HEK-Blue ISG cells (HEK293-derived SEAP reporter line)
T1 sequence (Q86WV6 whole entry H232R): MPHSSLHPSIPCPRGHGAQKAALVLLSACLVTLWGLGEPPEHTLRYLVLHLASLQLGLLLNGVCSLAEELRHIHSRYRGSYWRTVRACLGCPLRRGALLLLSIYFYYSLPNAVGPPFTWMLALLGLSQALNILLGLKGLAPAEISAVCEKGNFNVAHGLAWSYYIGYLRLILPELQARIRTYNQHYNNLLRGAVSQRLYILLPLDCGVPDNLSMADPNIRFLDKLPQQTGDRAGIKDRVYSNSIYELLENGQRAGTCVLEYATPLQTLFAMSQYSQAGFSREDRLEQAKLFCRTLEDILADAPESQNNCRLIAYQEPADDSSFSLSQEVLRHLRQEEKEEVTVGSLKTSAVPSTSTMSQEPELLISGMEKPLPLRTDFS
Method: Since STING activates the transcription factor IRF3 by ligand stimulation, the activity of STING can be evaluated by a reporter assay using a secreted alkaline phosphatase (SEAP reporter) incorporated downstream of the IRF-inducible promoter. In other words, the hSTING inhibitory activity of the test compounds was evaluated using HEK-Blue™ ISG cells (manufactured by InvivoGen, #hkb-isg-1) into which the SEAP reporter was incorporated. The activation of hSTING was performed by stimulation with the small molecule ligand, Compound 3 as described in the literature (Ramanjulu, J. M., et al., Nature. 2018, 564 (7736), 439-443).
The HEK-Blue™ ISG cells were seeded in 96-well plates and cultured overnight at 37° C. in a 5% CO2 incubator. To each well of the cell culture plates, a test compound solution adjusted to have a final concentration of 0.1 to 10 μM was added and cultured in the CO2 incubator for 1 hour. Then, the Compound 3 (final concentration of 10 nM) was added thereto and further cultured in the CO2 incubator for 21 hours. After collecting the culture supernatant from each well, the reporter activity was measured by luminous reaction of alkaline phosphatase.
(§1) Method for Evaluating Inhibitory Activity. Taking the reporter activity in the group without test compounds added and with Compound 3 added as 100% and the reporter activity in the group without test compounds added and without Compound 3 added as 0%, IC50 values were determined by regression analysis of the inhibition rate calculated from the reporter activity at each compound concentration and the test compound concentration (logarithm).
Evaluation Result. […] The inhibitory effect on the hSTING was indicated by marking an IC50 value of less than 0.1 μM with ***, that of 0.1 μM or more and less than 1 μM with **, that of 1 μM or more and less than 10 μM with *, and that of 10 μM or more with “-”.

STING = target: T2, STING (Homo sapiens, UniProt Q86WV6, G230A/H232R/R293Q/R71H); assay: Inhibition test of human IFN-β production by cGAMP stimulation in THP-1 cells; format: cell-based; settings: PMA-treated THP-1 cells, 2'3'-cGAMP transfection, 18 hours, ELISA of culture supernatant; read-out: Inhibitory effect on the IFN-β production
T2 construct: host or cells: THP-1 cells, PMA-treated
T2 sequence (Q86WV6 whole entry R71H/G230A/H232R/R293Q): as the sequence (Q86WV6 whole entry H232R) above, with R71H, G230A, R293Q counted along it
Method: The human monocytic cell line THP-1 cells were used to measure the amount of IFN-β produced when stimulated with the endogenous ligand cGAMP, thereby evaluating the inhibitory activity of the test compounds on STING activation.
After THP-1 cells (manufactured by ATCC) were seeded in 96-well plates, PMA (manufactured by Santa Cruz Biotechnology, Inc.) adjusted to a concentration after addition of 100 nM was added and cultured overnight at a 37° C. in a 5% CO2 incubator (10% FBS, 50 U/mL penicillin/50 μg/mL streptomycin-containing RPMI 1640 medium). To each well of the plate, a test compound solution adjusted to a final concentration of 0.001-1 μM of the test compound was added and cultured in the CO2 incubator for 1 hour (DMSO final concentration of 0.1%). 0.12 μg/well of 2′3′-cGAMP (manufactured by ChemieTek, #CT-CGAMP) was introduced into the cells by transfection method using Lipofectamine 2000 (manufactured by Invitrogen) and cultured in the CO2 incubator for another 18 hours. After collecting the culture supernatant from each well, the amount of human IFN-P production in the culture supernatant was measured by ELISA method using R&D human IFN-β Duoset (manufactured by R&D systems).
as §1, with “amount of human IFN-β production” for “reporter activity”, “cGAMP” for “Compound 3”
Evaluation Result. […] The inhibitory effect on the IFN-β production was indicated by marking an IC50 value of less than 0.01 μM with ***, that of 0.01 μM or more and less than 0.1 μM with **, that of 0.1 μM or more and less than 1 μM with *, and that of 1 μM or more with “-”, and NT was marked as unmeasured.

Nn1c(Nc2c[nH]c3cc(F)c(F)cc23)nc2cc(C(F)(F)F)ccc21 [Example 2, N2-(5,6-difluoro-1H-indol-3-yl)-5-(trifluoromethyl)-1H-benzo[d]imidazol-1,2-diamine Formate]
pIC50 (hSTING): > 7.00 | pIC50 (STING): > 8.00

CCNn1c(Nc2c[nH]c3cc(F)c(F)cc23)nc2cc(C(F)(F)F)cc(F)c21 [Example 23, N2-(5,6-difluoro-1H-indol-3-yl)-N1-ethyl-7-fluoro-5-(trifluoromethyl)-1H-benzo[d]imidazole-1,2-diamine hydrochloride]
pIC50 (hSTING): > 7.00 | pIC50 (STING): 7.00 to 8.00

Nn1c(Nc2c[nH]c3ccc(Cl)cc23)nc2cc(C(F)(F)F)ccc21 [Example 1, N2-(5-chloro-1H-indol-3-yl)-5-(trifluoromethyl)-1H-benzo[d]imidazol-1,2-diamine Hydrochloride]
pIC50 (hSTING): > 7.00 | pIC50 (STING): > 8.00

CNn1c(Nc2c[nH]c3ccc(F)c(F)c23)nc2cc(C(F)(F)F)c(F)cc21 [Example 12, N2-(4,5-difluoro-1H-indol-3-yl)-6-fluoro-N1-methyl-5-(trifluoromethyl)-1H-benzo[d]imidazole-1,2-diamine hydrochloride]
pIC50 (hSTING): 5.00 to 6.00 | pIC50 (STING): < 6.00

CCNn1c(Nc2c[nH]c3ccc(Cl)cc23)nc2cc(C(F)(F)F)cc(F)c21 [Example 14, N2-(5-chloro-1H-indol-3-yl)-N1-ethyl-7-fluoro-5-(trifluoromethyl)-1H-benzo[d]imidazole-1,2-diamine]
pIC50 (hSTING): > 7.00 | pIC50 (STING): > 8.00

CNn1c(Nc2c[nH]c3cc(F)c(F)cc23)nc2cc(C(F)(F)F)ccc21 [Example 4, N2-(5,6-difluoro-1H-indol-3-yl)-N1-methyl-5-(trifluoromethyl)-1H-benzo[d]imidazol-1,2-diamine]
pIC50 (hSTING): > 7.00 | pIC50 (STING): > 8.00

CNn1c(Nc2c[nH]c3cc(F)c(F)cc23)nc2cc(C(F)(F)F)c(F)cc21 [Example 10, N2-(5,6-difluoro-1H-indol-3-yl)-6-fluoro-N1-methyl-5-(trifluoromethyl)-1H-benzo[d]imidazole-1,2-diamine]
pIC50 (hSTING): 6.00 to 7.00 | pIC50 (STING): 7.00 to 8.00

CC(C)Nn1c(Nc2c[nH]c3ccc(Cl)cc23)nc2cc(C(F)(F)F)ccc21 [Example 20, N2-(5-chloro-1H-indol-3-yl)-N1-isopropyl-5-(trifluoromethyl)-1H-benzo[d]imidazole-1,2-diamine]
Inhibitory Activity on hSTING (hSTING): * *

CCNn1c(Nc2c[nH]c3cc(F)c(F)cc23)nc2cc(C(F)(F)F)ccc21 [Example 15, N2-(5,6-difluoro-1H-indol-3-yl)-N1-ethyl-5-(trifluoromethyl)-1H-benzo[d]imidazole-1,2-diamine]
pIC50 (hSTING): > 7.00 | pIC50 (STING): > 8.00

CNn1c(Nc2c[nH]c3ccc(C)c(F)c23)nc2cc(C(F)(F)F)ccc21 [Example 17, N2-(4-fluoro-5-methyl-1H-indol-3-yl)-N1-methyl-5-(trifluoromethyl)-1H-benzo[d]imidazole-1,2-diamine hydrochloride]
pIC50 (hSTING): > 7.00 | pIC50 (STING): > 8.00

CCNn1c(Nc2c[nH]c3ccc(F)cc23)nc2cc(C(F)(F)F)ccc21 [Example 29, N1-ethyl-N2-(5-fluoro-1H-indol-3-yl)-5-(trifluoromethyl)-1H-benzo[d]imidazole-1,2-diamine]
pIC50 (hSTING): > 7.00 | pIC50 (STING): 7.00 to 8.00

CCNn1c(Nc2c[nH]c3c(F)cc(F)cc23)nc2cc(C(F)(F)F)ccc21 [Example 19, N2-(5,7-difluoro-1H-indol-3-yl)-N1-ethyl-5-(trifluoromethyl)-1H-benzo[d]imidazole-1,2-diamine]
pIC50 (hSTING): > 7.00 | pIC50 (STING): > 8.00

CNn1c(Nc2c[nH]c3ncc(Cl)cc23)nc2cc(C(F)(F)F)ccc21 [Example 27, N2-(5-chloro-1H-pyrrolo[2,3-b]pyridin-3-yl)-N1-methyl-5-(trifluoromethyl)-1H-benzo[d]imidazole-1,2-diamine hydrochloride]
pIC50 (hSTING): 6.00 to 7.00 | pIC50 (STING): 6.00 to 7.00

CNn1c(Nc2c[nH]c3ccc(C)cc23)nc2cc(C(F)(F)F)c(F)cc21 [Example 8, 6-fluoro-N1-methyl-N2-(5-methyl-1H-indol-3-yl)-5-(trifluoromethyl)-1H-benzo[d]imidazole-1,2-diamine]
pIC50 (hSTING): > 7.00 | pIC50 (STING): > 8.00

Cl.[2H]C([2H])([2H])Nn1c(Nc2c[nH]c3ccc(Cl)cc23)nc2cc(C(F)(F)F)ccc21 [Example 25, N2-(5-chloro-1H-indol-3-yl)-N1-(methyl-d3)-5-(trifluoromethyl)-1H-benzo[d]imidazole-1,2-diamine hydrochloride]
pIC50 (hSTING): > 7.00 | pIC50 (STING): > 8.00

CCNn1c(Nc2c[nH]c3ccc(Cl)cc23)nc2cc(C(F)(F)F)ccc21 [Example 6, N2-(5-chloro-1H-indol-3-yl)-N1-ethyl-5-(trifluoromethyl)-1H-benzo[d]imidazol-1,2-diamine Hydrochloride]
pIC50 (hSTING): > 7.00 | pIC50 (STING): > 8.00

CNn1c(Nc2c[nH]c3ccc(F)cc23)nc2cc(C(F)(F)F)ccc21 [Example 16, N2-(5-fluoro-1H-indol-3-yl)-N1-methyl-5-(trifluoromethyl)-1H-benzo[d]imidazole-1,2-diamine hydrochloride]
pIC50 (hSTING): > 7.00 | pIC50 (STING): > 8.00

Nn1c(Nc2c[nH]c3ccc(F)cc23)nc2cc(C(F)(F)F)ccc21 [Example 28, N2-(5-fluoro-1H-indol-3-yl)-5-(trifluoromethyl)-1H-benzo[d]imidazole-1,2-diamine]
pIC50 (hSTING): 6.00 to 7.00 | pIC50 (STING): 7.00 to 8.00

CNn1c(Nc2c[nH]c3ccc(F)c(F)c23)nc2cc(C(F)(F)F)ccc21 [Example 3, N2-(4,5-difluoro-1H-indol-3-yl)-N1-methyl-5-(trifluoromethyl)-1H-benzo[d]imidazol-1,2-diamine Hydrochloride]
pIC50 (hSTING): > 7.00 | pIC50 (STING): > 8.00

CCNn1c(Nc2c[nH]c3c(F)cc(F)cc23)nc2cc(C(F)(F)F)cc(F)c21 [Example 22, N2-(5,7-difluoro-1H-indol-3-yl)-N1-ethyl-7-fluoro-5-(trifluoromethyl)-1H-benzo[d]imidazole-1,2-diamine hydrochloride]
pIC50 (hSTING): > 7.00 | pIC50 (STING): 7.00 to 8.00

CNn1c(Nc2c[nH]c3c(F)cc(F)cc23)nc2cc(C(F)(F)F)cc(F)c21 [Example 13, N2-(5,7-difluoro-1H-indol-3-yl)-7-fluoro-N1-methyl-5-(trifluoromethyl)-1H-benzo[d]imidazole-1,2-diamine hydrochloride]
pIC50 (hSTING): > 7.00 | pIC50 (STING): > 8.00

Nn1c(Nc2c[nH]c3ccc(Cl)cc23)nc2cc(C(F)(F)F)c(F)cc21 [Example 7, N2-(5-chloro-1H-indol-3-yl)-6-fluoro-5-(trifluoromethyl)-1H-benzo[d]imidazole-1,2-diamine hydrochloride]
pIC50 (hSTING): > 7.00 | pIC50 (STING): > 8.00

CNn1c(Nc2c[nH]c3cc(F)c(C)cc23)nc2cc(C(F)(F)F)ccc21 [Example 18, N2-(6-fluoro-5-methyl-1H-indol-3-yl)-N1-methyl-5-(trifluoromethyl)-1H-benzo[d]imidazole-1,2-diamine]
pIC50 (hSTING): > 7.00 | pIC50 (STING): > 8.00

CCCNn1c(Nc2c[nH]c3ccc(Cl)cc23)nc2cc(C(F)(F)F)ccc21 [Example 24, N2-(5-chloro-1H-indol-3-yl)-N1-propyl-5-(trifluoromethyl)-1H-benzo[d]imidazole-1,2-diamine]
pIC50 (hSTING): > 7.00 | pIC50 (STING): 7.00 to 8.00

From patent US12037325B2, “1,2-diaminobenzimidazole derivative” (Carna Biosciences, Inc., priority 2021, dated 2024)
